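Cells were grown in 96-well plates and exposed to each compound for 48 hours at five concentrations; endpoints were interpolated linearly between bracketing concentrations, or set to the highest concentration if not reached. TGI: total growth inhibition.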
Experiments:
Assay in all cases: growth of human tumour cells (NCI), 48 h
UO-31 renal = system: UO-31 renal
A549 NSCLC = system: A549 NSCLC
M14 melanoma = system: M14 melanoma
T-47D breast = system: T-47D breast
786-0 renal = system: 786-0 renal
OVCAR-5 ovarian = system: OVCAR-5 ovarian
UACC-62 melanoma = system: UACC-62 melanoma
MDA-MB-435 = system: MDA-MB-435
UACC-257 melanoma = system: UACC-257 melanoma
RXF 393 renal = system: RXF 393 renal
U251 CNS = system: U251 CNS
SK-OV-3 ovarian = system: SK-OV-3 ovarian
DU-145 prostate = system: DU-145 prostate
HS 578T breast = system: HS 578T breast
SK-MEL-28 melanoma = system: SK-MEL-28 melanoma
NCI-H226 lung = system: NCI-H226 lung
BT-549 breast = system: BT-549 breast
NCI-H460 lung = system: NCI-H460 lung
K-562 leukemia = system: K-562 leukemia
IGROV1 ovarian = system: IGROV1 ovarian
HL-60(TB) leukemia = system: HL-60(TB) leukemia
HCT-15 colon = system: HCT-15 colon
SNB-19 CNS = system: SNB-19 CNS
MDA-N = system: MDA-N
KM12 colon = system: KM12 colon
MDA-MB-231 breast = system: MDA-MB-231 breast
RPMI-8226 leukemia = system: RPMI-8226 leukemia
SF-539 CNS = system: SF-539 CNS
HT29 colon = system: HT29 colon
NCI/ADR-RES ovarian = system: NCI/ADR-RES ovarian
TK-10 renal = system: TK-10 renal
CAKI-1 renal = system: CAKI-1 renal
SNB-75 CNS = system: SNB-75 CNS
SN12C renal = system: SN12C renal
PC-3 prostate = system: PC-3 prostate
COLO 205 colon = system: COLO 205 colon
EKVX NSCLC = system: EKVX NSCLC
CCRF-CEM leukemia = system: CCRF-CEM leukemia
SK-MEL-2 melanoma = system: SK-MEL-2 melanoma
SK-MEL-5 melanoma = system: SK-MEL-5 melanoma
HOP-62 NSCLC = system: HOP-62 NSCLC
LOX IMVI melanoma = system: LOX IMVI melanoma
OVCAR-4 ovarian = system: OVCAR-4 ovarian
SR leukemia = system: SR leukemia
SW-620 colon = system: SW-620 colon
NCI-H522 lung = system: NCI-H522 lung
ACHN renal = system: ACHN renal
HCC-2998 colon = system: HCC-2998 colon
SF-295 CNS = system: SF-295 CNS
MOLT-4 leukemia = system: MOLT-4 leukemia
SF-268 CNS = system: SF-268 CNS
HCT-116 colon = system: HCT-116 colon
OVCAR-8 ovarian = system: OVCAR-8 ovarian
MALME-3M melanoma = system: MALME-3M melanoma
HOP-92 NSCLC = system: HOP-92 NSCLC
MCF7 breast = system: MCF7 breast
NCI-H23 lung = system: NCI-H23 lung
OVCAR-3 ovarian = system: OVCAR-3 ovarian
A498 renal = system: A498 renal

## N#C/C(=C\c1ccc(Cl)cc1)c1nc(-c2cc3ccccc3oc2=O)cs1
UO-31 renal
  TGI: > 100 µM
A549 NSCLC
  TGI: > 100 µM
M14 melanoma
  TGI: > 100 µM
T-47D breast
  TGI: > 100 µM
786-0 renal
  TGI: > 100 µM
OVCAR-5 ovarian
  TGI: > 100 µM
UACC-62 melanoma
  TGI: 85.3 µM
MDA-MB-435
  TGI: > 100 µM
UACC-257 melanoma
  TGI: > 100 µM
RXF 393 renal
  TGI: > 100 µM
U251 CNS
  TGI: 93.3 µM
SK-OV-3 ovarian
  TGI: > 100 µM
DU-145 prostate
  TGI: > 100 µM
HS 578T breast
  TGI: 37.7 µM
SK-MEL-28 melanoma
  TGI: > 100 µM
NCI-H226 lung
  TGI: > 100 µM
BT-549 breast
  TGI: 31.8 µM
NCI-H460 lung
  TGI: > 100 µM
K-562 leukemia
  TGI: > 100 µM
IGROV1 ovarian
  TGI: > 100 µM
HL-60(TB) leukemia
  TGI: > 100 µM
HCT-15 colon
  TGI: > 100 µM
SNB-19 CNS
  TGI: > 100 µM
MDA-N
  TGI: > 100 µM
KM12 colon
  TGI: > 100 µM
MDA-MB-231 breast
  TGI: 47.8 µM
RPMI-8226 leukemia
  TGI: > 100 µM
SF-539 CNS
  TGI: > 100 µM
HT29 colon
  TGI: > 100 µM
NCI/ADR-RES ovarian
  TGI: > 100 µM
TK-10 renal
  TGI: 94.6 µM
CAKI-1 renal
  TGI: > 100 µM
SNB-75 CNS
  TGI: > 100 µM
SN12C renal
  TGI: > 100 µM
PC-3 prostate
  TGI: > 100 µM
COLO 205 colon
  TGI: > 100 µM
EKVX NSCLC
  TGI: > 100 µM
CCRF-CEM leukemia
  TGI: > 100 µM
SK-MEL-2 melanoma
  TGI: > 100 µM
SK-MEL-5 melanoma
  TGI: > 100 µM
HOP-62 NSCLC
  TGI: 58.2 µM
LOX IMVI melanoma
  TGI: > 100 µM
OVCAR-4 ovarian
  TGI: > 100 µM
SR leukemia
  TGI: > 100 µM
SW-620 colon
  TGI: > 100 µM
NCI-H522 lung
  TGI: 50.1 µM
ACHN renal
  TGI: > 100 µM
HCC-2998 colon
  TGI: > 100 µM
SF-295 CNS
  TGI: > 100 µM
MOLT-4 leukemia
  TGI: > 100 µM
SF-268 CNS
  TGI: > 100 µM
HCT-116 colon
  TGI: > 100 µM
OVCAR-8 ovarian
  TGI: > 100 µM
MALME-3M melanoma
  TGI: > 100 µM
HOP-92 NSCLC
  TGI: 51.3 µM
MCF7 breast
  TGI: > 100 µM

## Cc1noc(NS(=O)(=O)c2ccc(NC(=O)c3ccc4[nH]c5ccccc5c(=O)c4c3)cc2)c1C
UO-31 renal
  TGI: > 100 µM
A549 NSCLC
  TGI: > 100 µM
M14 melanoma
  TGI: > 100 µM
T-47D breast
  TGI: 63.2 µM
786-0 renal
  TGI: > 100 µM
OVCAR-5 ovarian
  TGI: > 100 µM
UACC-62 melanoma
  TGI: > 100 µM
MDA-MB-435
  TGI: > 100 µM
UACC-257 melanoma
  TGI: > 100 µM
RXF 393 renal
  TGI: 98 µM
U251 CNS
  TGI: > 100 µM
SK-OV-3 ovarian
  TGI: > 100 µM
DU-145 prostate
  TGI: > 100 µM
HS 578T breast
  TGI: > 100 µM
SK-MEL-28 melanoma
  TGI: > 100 µM
NCI-H226 lung
  TGI: > 100 µM
BT-549 breast
  TGI: > 100 µM
NCI-H460 lung
  TGI: > 100 µM
K-562 leukemia
  TGI: 81.5 µM
IGROV1 ovarian
  TGI: > 100 µM
HL-60(TB) leukemia
  TGI: 66.8 µM
HCT-15 colon
  TGI: > 100 µM
SNB-19 CNS
  TGI: > 100 µM
MDA-N
  TGI: > 100 µM
KM12 colon
  TGI: > 100 µM
MDA-MB-231 breast
  TGI: > 100 µM
RPMI-8226 leukemia
  TGI: > 100 µM
SF-539 CNS
  TGI: 62.2 µM
HT29 colon
  TGI: > 100 µM
NCI/ADR-RES ovarian
  TGI: > 100 µM
TK-10 renal
  TGI: > 100 µM
CAKI-1 renal
  TGI: > 100 µM
SNB-75 CNS
  TGI: > 100 µM
SN12C renal
  TGI: > 100 µM
PC-3 prostate
  TGI: > 100 µM
COLO 205 colon
  TGI: > 100 µM
EKVX NSCLC
  TGI: > 100 µM
CCRF-CEM leukemia
  TGI: 67.3 µM
NCI-H23 lung
  TGI: > 100 µM
OVCAR-3 ovarian
  TGI: 77.8 µM
SK-MEL-2 melanoma
  TGI: > 100 µM
SK-MEL-5 melanoma
  TGI: > 100 µM
HOP-62 NSCLC
  TGI: > 100 µM
LOX IMVI melanoma
  TGI: 56.5 µM
OVCAR-4 ovarian
  TGI: > 100 µM
SR leukemia
  TGI: 85.2 µM
SW-620 colon
  TGI: > 100 µM
NCI-H522 lung
  TGI: 76.2 µM
ACHN renal
  TGI: > 100 µM
HCC-2998 colon
  TGI: 65.2 µM
SF-295 CNS
  TGI: > 100 µM
MOLT-4 leukemia
  TGI: 67.6 µM
SF-268 CNS
  TGI: > 100 µM
HCT-116 colon
  TGI: > 100 µM
OVCAR-8 ovarian
  TGI: > 100 µM
MALME-3M melanoma
  TGI: > 100 µM
HOP-92 NSCLC
  TGI: > 100 µM
MCF7 breast
  TGI: 66.5 µM

## CC(C)(C)OC(=O)CCC1NC(=O)[C@@H]2Cc3c([nH]c4ccccc34)C(C3CCCCC3)N2C1=O (stereo partly drawn)
UO-31 renal
  TGI: > 100 µM
A549 NSCLC
  TGI: > 100 µM
M14 melanoma
  TGI: > 100 µM
T-47D breast
  TGI: > 100 µM
786-0 renal
  TGI: > 100 µM
OVCAR-5 ovarian
  TGI: > 100 µM
UACC-62 melanoma
  TGI: > 100 µM
MDA-MB-435
  TGI: > 100 µM
UACC-257 melanoma
  TGI: > 100 µM
RXF 393 renal
  TGI: > 100 µM
U251 CNS
  TGI: > 100 µM
SK-OV-3 ovarian
  TGI: > 100 µM
DU-145 prostate
  TGI: > 100 µM
HS 578T breast
  TGI: > 100 µM
SK-MEL-28 melanoma
  TGI: > 100 µM
NCI-H226 lung
  TGI: > 100 µM
BT-549 breast
  TGI: > 100 µM
K-562 leukemia
  TGI: > 100 µM
IGROV1 ovarian
  TGI: > 100 µM
HL-60(TB) leukemia
  TGI: 41.9 µM
HCT-15 colon
  TGI: > 100 µM
SNB-19 CNS
  TGI: > 100 µM
MDA-N
  TGI: > 100 µM
KM12 colon
  TGI: 78 µM
MDA-MB-231 breast
  TGI: 76.6 µM
RPMI-8226 leukemia
  TGI: 56.5 µM
HT29 colon
  TGI: 40.2 µM
NCI/ADR-RES ovarian
  TGI: > 100 µM
TK-10 renal
  TGI: > 100 µM
CAKI-1 renal
  TGI: > 100 µM
SN12C renal
  TGI: 65.6 µM
PC-3 prostate
  TGI: 74.2 µM
COLO 205 colon
  TGI: 38.9 µM
EKVX NSCLC
  TGI: > 100 µM
NCI-H23 lung
  TGI: > 100 µM
OVCAR-3 ovarian
  TGI: 99.7 µM
SK-MEL-2 melanoma
  TGI: 65.5 µM
SK-MEL-5 melanoma
  TGI: > 100 µM
A498 renal
  TGI: > 100 µM
HOP-62 NSCLC
  TGI: > 100 µM
LOX IMVI melanoma
  TGI: > 100 µM
OVCAR-4 ovarian
  TGI: > 100 µM
SR leukemia
  TGI: 61.1 µM
SW-620 colon
  TGI: > 100 µM
NCI-H522 lung
  TGI: > 100 µM
ACHN renal
  TGI: > 100 µM
SF-295 CNS
  TGI: 66.2 µM
MOLT-4 leukemia
  TGI: 61.3 µM
SF-268 CNS
  TGI: > 100 µM
HCT-116 colon
  TGI: > 100 µM
OVCAR-8 ovarian
  TGI: > 100 µM
MALME-3M melanoma
  TGI: 80.3 µM
HOP-92 NSCLC
  TGI: 78.3 µM
MCF7 breast
  TGI: > 100 µM
